# Experimental data from patent US12617781B2, “Utidelone semi-hydrated single crystal and preparation method therefor and use thereof” (Beijing Biostar Pharmaceuticals Co., Ltd., priority 2020, dated 2026).
# Like-named read-outs stand apart in the source and are kept apart here.
# Legend:
# [1] = Stability test of the semihydrate crystal under storage conditions (temperature); assay type: physicochemical
# Method: Stability test: The stability test of the semihydrate crystal was carried out under the following conditions:
# (§1) Storage condition 1: 2-25° C., stored in a sealed state for more than 3 years, confirmed by NMR, HPLC, X-ray powder diffraction and infrared spectrum analysis, etc., the semihydrate crystal was stable (no changes in content, no impurities due to degradation, no changes in appearance and physicochemical properties).
# as §1, with “Condition 2: 25°” for “condition 1: 2-25°”, “60%±10% RH, unsealed storage” for “stored in a sealed state”, “days, after the sample was continued to be stored at 25° C. for 1 year, it was” for “years,”
# as §1, with “3: Stored” for “1: 2-25° C., stored”, “state at 40° C.” for “state”, “2 years. It was” for “3 years,”
# as §1, with “Condition 4: Stored at 60° C.” for “condition 1: 2-25° C., stored in a sealed state”, “1 year. It was” for “3 years,”
# [2] = Stability under high humidity; assay type: physicochemical
# Description: The semihydrate crystal obtained in Example 1 was placed under the condition of relative humidity of 90%±5% for 10 days, and samples were taken on the 5th and 10th days.
# Utidelone anhydrous crystal was placed under the condition of relative humidity of 90±5% for 10 days. Samples were taken on the 5th and 10th days. The moisture content increased and the moisture absorption was obvious.
# [3] = Stability under strong light (light box); assay type: physicochemical; settings: 4500 lx±500 lx, 10 days
# Description: The semihydrate crystal obtained in Example 1 was placed in a light box, and placed for 10 days under the condition that the light intensity was 4500 lx±500 lx.
# Solubility test = assay type: physicochemical; settings: thermodynamic from solid
# [4] = Stability in 0.1N hydrochloric acid solution; assay type: physicochemical
# Method: The semihydrate crystal obtained in Example 1 was placed in a 0.1N hydrochloric acid solution, and the crystal was stable: no obvious degradation impurities were produced. Solubility >5 mg/ml.
# [5] = PK study on intravenous administration of the pharmaceutical composition containing Utidelone semihydrate crystal; assay type: in vivo; settings: for MRT / AUC(0-t) / half-life: human, in vivo, iv, 40 mg/m2, intravenous infusion 40 mg/m2 once a day for 5 days; for AUC(0-t): read-out: AUC(0-24); for half-life: read-out: elimination half-life t½ in plasma (converted); for apparent volume of distribution / plasma clearance CL: intravenous infusion 40 mg/m2 once a day for 5 days
# Method: Utidelone injection was prepared with Utidelone crystals (crystal A or mixed crystals containing crystal A) and 50% v/v absolute ethanol (USP), 30% v/v propylene glycol (USP) and 20% v/v polyoxyl castor oil 1 (Cremophor EL or ELP) as a solubilizer. The injection has low water content and high stability.
# [6] = high humidity conditions (summary statement)
# [7] = relative humidity 90%±5%, 10 days, samples on 5th and 10th days
compound,measurement,setting,value
C/C1=C/C[C@@H](/C(C)=C/c2csc(C)n2)OC(=O)C[C@H](O)C(C)(C)C(=O)[C@H](C)[C@@H](O)[C@@H](C)CCC1 [semihydrate crystal],Storage time without changes in substance,[1]; 40° C.,more than 3 years
same,Storage time without changes in substance,[1]; 60° C.,more than 1 year
same,"Stability (content, degradation impurities, appearance, physicochemical properties)","[1]; Storage condition 1: 2-25° C., sealed, more than 3 years, NMR, HPLC, XRPD, IR",stable
same,"Stability (content, degradation impurities, appearance, physicochemical properties)","[1]; Storage condition 2: 25° C., 60%±10% RH, unsealed more than 3 days, then 25° C. for 1 year",stable
same,"Stability (content, degradation impurities, appearance, physicochemical properties)","[1]; Storage condition 3: sealed, 40° C., more than 2 years",stable
same,"Stability (content, degradation impurities, appearance, physicochemical properties)","[1]; Storage condition 4: 60° C., more than 1 year",stable
same,Stability,[2]; [6],very stable
same,Water content,[2]; [6],does not change significantly
same,Moisture content,[2]; [7],basically unchanged
same,"Stability (content, degradation impurities, appearance, physicochemical properties)",[2]; [7],stable
same,Moisture content,[3],basically unchanged
same,"Stability (content, degradation impurities, appearance, physicochemical properties)",[3],stable
same,solubility,"Solubility test; 0.1N hydrochloric acid solution, simulated gastric fluid",> 5 mg/mL
same,solubility,"Solubility test; 50% ethanol, 30% propylene glycol, 20% castor oil, organic solvent or mixture",> 100 mg/mL
same,solubility,"Solubility test; DMSO, organic solvent or mixture",> 50 mg/mL
same,solubility,"Solubility test; benzyl alcohol, organic solvent or mixture",> 50 mg/mL
same,solubility,"Solubility test; ethanol, organic solvent or mixture",> 50 mg/mL
same,solubility,"Solubility test; methanol, organic solvent or mixture",> 50 mg/mL
same,solubility,"Solubility test; propylene glycol, organic solvent or mixture",> 50 mg/mL
same,Stability (degradation impurities),[4],stable
C/C1=C/C[C@@H](/C(C)=C/c2csc(C)n2)OC(=O)C[C@H](O)C(C)(C)C(=O)[C@H](C)[C@@H](O)[C@@H](C)CCC1 [Utidelone],Accumulation in the body after continuous administration,"[5]; 40 mg/m2 once a day for 5 days, first vs last administration",did not accumulate
same,MRT,[5]; 1st day,4.5 ± 0.8 h
same,AUC(0-t),[5]; 1st day,4.18 ± 1.01 µg·h/mL
same,half-life,[5]; 1st day,8.6 ± 0.1 h
same,MRT,[5]; 5th day,5.1 ± 0.7 h
same,AUC(0-t),[5]; 5th day,4.55 ± 1.63 µg·h/mL
same,half-life,[5]; 5th day,8.2 ± 1.1 h
same,apparent volume of distribution,[5]; 1st day,114.0±35.2 L/m2
same,plasma clearance CL,[5]; 1st day,9.2±2.7 L/h/m2
same,apparent volume of distribution,[5]; 5th day,109.1±62.6 L/m2
same,plasma clearance CL,[5]; 5th day,8.9±3.9 L/h/m2
C/C1=C/C[C@@H](/C(C)=C/c2csc(C)n2)OC(=O)C[C@H](O)C(C)(C)C(=O)[C@H](C)[C@@H](O)[C@@H](C)CCC1 [Utidelone anhydrous crystal],Moisture content,[2]; [7],increased
same,Moisture absorption,"[2]; relative humidity 90±5%, 10 days, samples on 5th and 10th days",obvious
